Reference: patent publication US20250066316A1, “CRYSTALLINE FORMS OF A COMPOUND FOR TREATING OR PREVENTING GOUT OR HYPERURICEMIA” (Arthrosi Therapeutics, Inc., priority 2021, published 2025)

Experiments:
[1] = cited from earlier work
[2] = molecular target: T1, human URAT1 uptake transporter (Homo sapiens, UniProt Q96S37); experiment: In vitro interaction with the human URAT1 uptake transporter (uric acid uptake in MDCKII cells); type: cell-based; details: for inhibition at 10 µM: MDCK-II, read-out: inhibition of URAT1 mediated uric acid accumulation
T1 construct: expressed in transfected cells
T1 sequence (Q96S37 1-553): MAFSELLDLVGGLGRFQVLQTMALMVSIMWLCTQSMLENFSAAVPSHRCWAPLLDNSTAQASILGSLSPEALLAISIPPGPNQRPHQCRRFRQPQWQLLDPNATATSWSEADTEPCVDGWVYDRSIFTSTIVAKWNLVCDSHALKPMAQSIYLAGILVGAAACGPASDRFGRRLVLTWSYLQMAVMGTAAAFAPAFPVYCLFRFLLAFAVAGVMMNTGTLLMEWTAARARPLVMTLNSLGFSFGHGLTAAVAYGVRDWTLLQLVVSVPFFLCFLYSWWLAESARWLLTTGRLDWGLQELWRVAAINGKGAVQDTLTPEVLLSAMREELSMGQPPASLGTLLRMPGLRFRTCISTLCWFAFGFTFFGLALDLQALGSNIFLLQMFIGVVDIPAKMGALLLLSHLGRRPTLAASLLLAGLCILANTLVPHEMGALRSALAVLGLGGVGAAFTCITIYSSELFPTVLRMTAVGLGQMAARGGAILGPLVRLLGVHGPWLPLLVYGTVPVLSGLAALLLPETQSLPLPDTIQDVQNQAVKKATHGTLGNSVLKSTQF
Description: Uptake experiments were performed using MDCKII cells stably expressing the human URAT1 uptake transporter. Cells were cultured at 37±1° C. in an atmosphere of 95:5 air:CO2 and were plated onto standard 96-well tissue culture plates at the cell number described in Table 1.
Radiolabelled probe substrate transport was determined by measuring an aliquot (35 μL) from each well for liquid scintillation counting.

[3] = Solubility of test articles in HBSS assay buffer; details: all tested concentrations; highest tested concentration 10 μM
Description: Before the experiment, the medium was removed and the cells were washed twice with 100 μL of HBSS without Cl^−. Uptake experiments were carried out at 37±1° C. in 50 μL of HBSS without Cl^−, pH 7.4 containing the probe substrate (20 μM uric acid) and the test article (TA) or solvent.

[4] = Stability in human microsomes; type: in vitro ADME; details: comparison with benzbromarone
CYP2C9 = CYP2C9 (Homo sapiens, UniProt P11712); experiment: CYP2C9 metabolic pathway / metabolite formation; type: in vitro ADME
Chain of CYP2C9 (P11712 whole entry): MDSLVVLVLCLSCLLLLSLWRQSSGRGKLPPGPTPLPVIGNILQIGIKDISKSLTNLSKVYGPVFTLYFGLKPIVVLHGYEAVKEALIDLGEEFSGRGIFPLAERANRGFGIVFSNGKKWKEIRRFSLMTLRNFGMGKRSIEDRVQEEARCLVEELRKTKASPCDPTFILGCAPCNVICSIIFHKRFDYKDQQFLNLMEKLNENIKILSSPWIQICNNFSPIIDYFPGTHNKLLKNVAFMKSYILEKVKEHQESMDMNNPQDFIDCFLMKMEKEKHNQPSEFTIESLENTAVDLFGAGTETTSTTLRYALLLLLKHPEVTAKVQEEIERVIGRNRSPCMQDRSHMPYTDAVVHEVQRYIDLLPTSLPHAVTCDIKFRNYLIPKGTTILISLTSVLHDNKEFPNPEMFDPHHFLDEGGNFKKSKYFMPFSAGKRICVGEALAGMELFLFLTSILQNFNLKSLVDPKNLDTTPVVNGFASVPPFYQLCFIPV

inhibition at 10 µM [2] [%] | solubility in HBSS buffer [3] | stability in human microsomes [4] | CYP2C9 metabolic pathway of the compound (CYP2C9) | formation of 6-OH benzbromarone and 5,6-di-OH benzbromarone metabolites (CYP2C9) | in vitro URAT1 potency compared to benzbromarone ([2]; comparison with benzbromarone) | SMILES | serum uric acid (sUA) level reached ([1]; chronic therapy, target levels) [mg/dL] | hepatotoxicity ([1]; in certain patients)
98 | soluble | – | – | – | – | CCc1oc2ccccc2c1C(=O)c1cc(Br)c(O)c(Br)c1 [Benzbromarone, reference compound] | < 6 | associated with hepatotoxicity
100 | soluble | more stable than benzbromarone | significantly reduced | not formed | better | [2H]c1c([2H])c([2H])c2c(C(=O)c3cc(Br)c(O)c(Br)c3)c(C(C)O)oc2c1[2H] (stereo not shown) [Compound 1, (3,5-dibromo-4-hydroxyphenyl) (2-(1-hydroxyethyl)benzofuran-3-yl-4,5,6,7-d4) methanone] | – | –
